In one data set the test system is CYP24A1. The data set is described as follows: RT-qPCR of CYP24A1 mRNA in CRC cells. In kind it is cell-based, human. As to conditions: HCT116 and HT29 cells, 1,25(OH)2D3 (5 µM), 48 h. The protocol:
Total RNA was extracted with TRIzol reagent (Invitrogen) according to the manufacturer's instructions. For cDNA synthesis, 1 μg of total RNA was reverse transcribed using a FastKing RT Kit (Tiangen). RT-qPCRs were run in triplicate using SYBR Green master mix (Roche) in an ABI 7900 Thermal Cycler (Applied Biosystems) according to the manufacturer's instructions. RT-qPCRs were performed in triplicate, and the mean cycle threshold (Ct) values were calculated for expression analysis. The mRNA levels of target genes were calculated using the 2^-ΔΔCt method. The expression data were normalized to β-actin expression levels and are presented as the mean ± s.e.m. of three independent experiments.
For orientation: In qPCR the cycle at which signal appears reflects the starting amount.

Data set [1] in a line: Pharmacokinetic studies in mice. In kind it is in vivo. Also on record: t1/2 / F (bioavailability): dose or concentration left out as unconfirmed. As to conditions: C57BL/6J mice. The protocol:
Pharmacokinetic studies were performed by Shanghai Medicilon Inc, China, following standard protocols. Briefly, six-week-old male C57BL/6J mice were grouped randomly (n = 5 per group). […] Two administration formulations were prepared in the vehicle with 5% DMSO, 10% Solutol and 85% saline, with the pH adjusted to 7.0-8.0. After treatment, the mice were sacrificed, and their plasma samples were collected at 5 min, 15 min, 30 min, 1 h, 2 h, 4 h, 8 h, and 24 h. The drug concentration in plasma was analyzed by LC-MS/MS. Pharmacokinetic parameters were calculated using Analyst Software 1.6.3 from mean plasma concentration-time profiles. The area under the curve (AUC) was measured from time versus concentration data by the linear trapezoidal rule. […] The calculation was normalized to relative doses.

The target in the next data set is SIRT6 (Homo sapiens, UniProt Q8N6T7). The data set is described as follows: FDL assay of SIRT6 deacetylase activity (RHKK-Ac-AMC). The class given is biochemical. Also on record: WT (wild-type) full-length human SIRT6 was inserted into the pET28a-LIC vector; made in house; host or cells: Escherichia coli BL21 (DE3). To be noted: activation of SIRT6 deacetylation, RHKK-Ac-AMC (75 µM), mean ± s.d., three independent experiments. The protocol: According to previously described methods, WT (wild-type) full-length human SIRT6 was inserted into the pET28a-LIC vector (Addgene plasmid #26094). The plasmid was transformed into Escherichia coli BL21 (DE3) cells. Protein was purified using a nickel column and gel filtration. Purified protein was dialyzed into assay buffer (50 mM Tris-HCl [pH 8.0], 137 mM NaCl, 2.7 mM KCl, and 1 mM MgCl2) and used in all in vitro assays performed in this study.
For the assessment of SIRT6 deacetylase activity, 5 μM WT SIRT6 was incubated in a 50-μL reaction mixture (2.5 mM NAD^+, 75 μM RHKK-Ac-AMC, compounds/DMSO, and assay buffer) at 37 °C for 2 h, quenched with 40 mM nicotinamide, and developed with 6 mg/mL trypsin for another 30 min at 25 °C. […] Fluorescence intensity was measured using a microplate reader (Synergy H4 Hybrid Reader, BioTek) at excitation and emission wavelengths of 360 nm and 460 nm, respectively. EC50 values were calculated by fitting the data points with the dose-response function in GraphPad Prism V7 (GraphPad Software). Each experiment was independently repeated three times in technical triplicates.

Sequence of SIRT6 (Q8N6T7 whole entry): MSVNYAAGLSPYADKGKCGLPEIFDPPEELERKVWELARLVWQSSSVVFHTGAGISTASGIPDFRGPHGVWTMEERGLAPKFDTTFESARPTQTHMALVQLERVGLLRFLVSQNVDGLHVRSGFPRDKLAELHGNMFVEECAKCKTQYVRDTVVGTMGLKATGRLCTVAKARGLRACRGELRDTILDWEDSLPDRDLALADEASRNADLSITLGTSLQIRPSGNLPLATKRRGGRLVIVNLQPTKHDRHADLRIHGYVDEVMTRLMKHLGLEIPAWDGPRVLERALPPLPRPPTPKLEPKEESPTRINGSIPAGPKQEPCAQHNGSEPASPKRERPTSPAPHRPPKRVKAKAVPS

In the case of `C=C1/C(=C\C=C2/CCC[C@]3(C)[C@@H]([C@H](C)CCCC(C)(C)O)CC[C@@H]23)C[C@@H](O)C[C@@H]1O` [1,25(OH)2D3, 1,25-dihydroxyvitamin D3, reference compound], the CYP24A1 transcription result with CYP24A1 is “dramatically induced CYP24A1 transcription”.

On to `COC(=O)c1cc(NS(=O)(=O)c2cc(Cl)cc(Cl)c2)ccc1S(=O)(=O)Nc1cc(Br)c(F)cc1C` [MDL-800, reference compound], for which, in data set [1] (IP vs IV, ratio of AUC normalized to dose), the “F (bioavailability)” value stood at 71.33%. In data set [1] (IP, plasma, mean of five mice), the AUC0-t came out at 17831.51 ng·h/mL; the “AUC0-∞” value amounted to 17883.09 ng·h/mL; the Cmax (usually the maximum level reached in the sampled fluid or tissue) is 6610.46 ng/mL; the MRT (usually a mean duration of stay, worked out from the concentration-time curve) was 2.47 h. In data set [1] (IP, plasma, mean of five mice), this compound registered a t1/2 of 2.07 h and a tmax of 0.50 h.

Take `Cc1cc(F)c(Br)cc1NS(=O)(=O)c1ccc(NS(=O)(=O)c2cc(Cl)cc(Cl)c2)cc1CN1CCNCC1` [MDL-812]: on SIRT6, the EC50 (usually the concentration giving half of the maximal effect) is 12.8 ± 1 µM.

Take `CCCCN(CC)Cc1cc(NS(=O)(=O)c2cc(Cl)cc(Cl)c2)ccc1S(=O)(=O)Nc1cc(Br)c(F)cc1C` [MDL-813]: the EC50 on SIRT6 is 15.4 ± 0.4 µM.

For `Cc1cc(F)c(Br)cc1NS(=O)(=O)c1ccc(NS(=O)(=O)c2cc(Cl)cc(Cl)c2)cc1CN1CCC(N2CCCCC2)CC1` [MDL-814], the EC50 at SIRT6 is 12.2 ± 0.7 µM.

On to `COCCCN1CCN(Cc2cc(NS(=O)(=O)c3cc(Cl)cc(Cl)c3)ccc2S(=O)(=O)Nc2cc(Br)c(F)cc2C)CC1` [MDL-815], for which the EC50 on SIRT6 came out at 6.5 ± 0.4 µM.

Take `CCCCN1CCN(Cc2cc(NS(=O)(=O)c3cc(Cl)cc(Cl)c3)ccc2S(=O)(=O)Nc2cc(Br)c(F)cc2C)CC1` [MDL-816]: the EC50 on SIRT6 came to 7.1 ± 0.3 µM.

For `Cc1cc(F)c(Br)cc1NS(=O)(=O)c1ccc(NS(=O)(=O)c2cc(Cl)cc(Cl)c2)cc1CN1CCC(N(C)C)C1` (stereo not shown) [MDL-817], the EC50 at SIRT6 turned out to be 9.9 ± 1.5 µM.

As to `Cc1cc(F)c(Br)cc1NS(=O)(=O)c1ccc(NS(=O)(=O)c2cc(Cl)cc(Cl)c2)cc1CN(C)C` [MDL-818], the EC50 at SIRT6 worked out at 43.6 ± 3.2 µM.

In the case of `CCN(C)Cc1cc(NS(=O)(=O)c2cc(Cl)cc(Cl)c2)ccc1S(=O)(=O)Nc1cc(Br)c(F)cc1C` [MDL-819], the EC50 at SIRT6 amounted to 34.1 ± 2.6 µM.

On to `CCCN(C)Cc1cc(NS(=O)(=O)c2cc(Cl)cc(Cl)c2)ccc1S(=O)(=O)Nc1cc(Br)c(F)cc1C` [MDL-820], for which, at SIRT6, the EC50 amounted to 38.4 ± 1.8 µM.

For `Cc1cc(F)c(Br)cc1NS(=O)(=O)c1ccc(NS(=O)(=O)c2cc(Cl)cc(Cl)c2)cc1CN1CCCCC1` [MDL-821], on SIRT6, the EC50 was 12.2 ± 0.9 µM.

With `Cc1cc(F)c(Br)cc1NS(=O)(=O)c1ccc(NS(=O)(=O)c2cc(Cl)cc(Cl)c2)cc1CN1CCCC1CO` (stereo not shown) [MDL-822], at SIRT6, the EC50 was 23.9 ± 1 µM.
